According to article PMC9569163 (Journal of molecular biology, 2020):
Blank lines part the entries; values can stand above or below the substance they belong to.

What was measured:
[1] = cited from earlier work
[2] = cited from earlier work; remark: listed apart in the source
TfR = conditions: cited from earlier work
human TfR = human TfR (Homo sapiens, UniProt P02786); conditions: SPR, 40 nM analyte, HBS-P+ pH 7.4, 56 RUs captured human TfR
Chain of human TfR (P02786 121-760): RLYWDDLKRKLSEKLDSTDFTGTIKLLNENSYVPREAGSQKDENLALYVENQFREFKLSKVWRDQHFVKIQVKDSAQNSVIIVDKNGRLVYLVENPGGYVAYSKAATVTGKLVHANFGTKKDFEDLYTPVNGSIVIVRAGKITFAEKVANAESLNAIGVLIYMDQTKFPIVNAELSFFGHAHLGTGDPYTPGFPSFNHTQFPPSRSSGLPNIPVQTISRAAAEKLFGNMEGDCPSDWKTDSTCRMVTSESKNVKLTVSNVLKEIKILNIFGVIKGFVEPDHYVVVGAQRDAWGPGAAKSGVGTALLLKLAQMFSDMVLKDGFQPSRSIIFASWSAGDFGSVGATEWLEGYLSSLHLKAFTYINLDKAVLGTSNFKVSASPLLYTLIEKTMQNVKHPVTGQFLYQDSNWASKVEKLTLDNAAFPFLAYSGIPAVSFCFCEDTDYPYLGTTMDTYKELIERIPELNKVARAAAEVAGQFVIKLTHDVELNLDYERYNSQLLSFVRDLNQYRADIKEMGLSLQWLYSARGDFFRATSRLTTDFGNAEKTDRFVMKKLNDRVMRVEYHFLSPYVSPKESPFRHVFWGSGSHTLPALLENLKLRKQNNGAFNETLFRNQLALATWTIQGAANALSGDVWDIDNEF

Substance: Angiopep-2
serum degradation half-life [1]: ~ 20 minutes

Substance: transferrin
plasma half-life [2]: 40 h
endocytosis rate t½ (TfR): 3.5 min

interaction with captured TfR (human TfR): demonstrated an interaction
Substance: holo-transferrin
